# Results reported in patent US20180346525A1, “DIAGNOSTIC AND THERAPEUTIC QUORUM-SENSING-MANIPULATION MOLECULES THAT ARE TRACKABLE FOR HEALTH-CARE AND INDUSTRIAL SYSTEMS” (The Trustees of Princeton University, priority 2017, published 2018).
# Tested on: S. aureus Agr QS (AgrC-I/AgrA, agrP3 promoter)
# Assay: Agr QS fluorescence reporter (agrP3-mkate2) in S. aureus reporter strain
# Format: cell-based, Staphylococcus aureus
# Conditions: FIG. 3
# From the text: FIG. 1 illustrates the Agr QS responses of S. aureus to exogenously supplied agonists and antagonists or conjugates of those compounds attached to detectable moieties. To follow the QS status of S. aureus cells, confocal microscopy and an S. aureus reporter strain that produced the fluorescent protein mKate2 in response to exogenous addition of AIP-I was used. The reporter strain was a ΔagrBDCA ΔRNAIII S. aureus mutant harboring agrCA driven by the native agrP2 promoter. […] The plasmid also harbored the Agr-activated agrP3 promoter fused to mkate2. […] This QS response was repressed by the administration of AIP-II. […] However, once the cells detected the exogenous autoinducers, the cells produced mKate2 (red fluorescent protein). […]
# Transcription from fluorescence reporter genes was measured in S. aureus strain MK242. […] Using a Synergy 2 plate reader (Biotek, Winooski, Vt.), GFPmut2 and mKate2 levels were measured at 484 nm/528 nm and 588 nm/633 nm, respectively. […]
# Imaging was performed using a Nikon Eclipse Ti inverted microscope (Melville, N.Y.) fitted with a Yokogawa CSU X-1 confocal spinning disk scanning unit (Biovision Technologies, Exton, Pa.) and DU-897 X-9351 camera (Andor, Concord, Mass.). […] In the area of an individual cell, both the constitutive GFPmut2 fluorescence and the QS controlled mKate2 fluorescence were measured, subtracted from background signals and summed. […]
substance,measurement,setting,value
AIP-I,mKate2 production in the reporter strain,1 μM compound alone,produced
same,"Specific binding to AgrC receptors, indicated by AIP-II competition",,specifically bind to AgrC receptors
